Results reported in ChEMBL document CHEMBL1201862, “PubChem BioAssay data set” (2004).
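How tested: cells in 96-well plates exposed to compound for 48 hours at five concentrations. GI50: concentration for 50% inhibition of growth.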 Active and inactive are the calls of the source. No stated cut-off is given here; in the data, active = GI50 up to about 1.1 µM and inactive = higher.

What was measured:
Assay in all cases: DTP human tumour cell line panel, 48 h
BT-549 = test system: BT-549
CAKI-1 = test system: CAKI-1
HCT-116 = test system: HCT-116
HCT-15 = test system: HCT-15
HL-60 = test system: HL-60
IGROV-1 = test system: IGROV-1
M14 = test system: M14
MCF7 = test system: MCF7
MDA-MB-231 = test system: MDA-MB-231
MDA-N = test system: MDA-N
NCI-H460 = test system: NCI-H460
RXF 393 = test system: RXF 393
SK-MEL-28 = test system: SK-MEL-28
SK-MEL-5 = test system: SK-MEL-5
SNB-19 = test system: SNB-19
SNB-75 = test system: SNB-75
T47D = test system: T47D
U-251 = test system: U-251
EKVX = test system: EKVX
HOP-62 = test system: HOP-62

Structure (SMILES)	GI50 (BT-549)	GI50 (CAKI-1)	GI50 (HCT-116)	GI50 (HCT-15) [µM]	GI50 (HL-60)	GI50 (IGROV-1)	GI50 (M14)	GI50 (MCF7)	GI50 (MDA-MB-231)	GI50 (MDA-N)	GI50 (NCI-H460)	GI50 (RXF 393)	GI50 (SK-MEL-28)	GI50 (SK-MEL-5)	GI50 (SNB-19)	GI50 (SNB-75)	GI50 (T47D)	GI50 (U-251)	GI50 (EKVX)	GI50 (HOP-62)
N=C(N)c1ccc2oc3ccc(C(=N)N)cc3c(=O)c2c1	> 100 µM (inactive)	> 100 µM (inactive)	> 100 µM (inactive)	> 100	> 100 µM (inactive)	> 100 µM (inactive)	> 100 µM (inactive)	60.4 µM (inactive)	> 100 µM (inactive)	> 100 µM (inactive)	> 100 µM (inactive)	> 100 µM (inactive)	> 100 µM (inactive)	> 100 µM (inactive)	> 100 µM (inactive)	> 100 µM (inactive)	> 100 µM (inactive)	> 100 µM (inactive)		
Cc1ccc(S(=O)(=O)NC(=O)OC23COCN2COC3)cc1	> 100 µM (inactive)	> 100 µM (inactive)	> 100 µM (inactive)	> 100		> 100 µM (inactive)	> 100 µM (inactive)	91 µM (inactive)	> 100 µM (inactive)	> 100 µM (inactive)	> 100 µM (inactive)	> 100 µM (inactive)	> 100 µM (inactive)	> 100 µM (inactive)	> 100 µM (inactive)	> 100 µM (inactive)	69.5 µM (inactive)	> 100 µM (inactive)	> 100 µM (inactive)	> 100 µM (inactive)
C=C(C)CC1=C(OCC)C(OC)(OCC)C1=O (stereo not given)	40.3 µM (inactive)	> 100 µM (inactive)	> 100 µM (inactive)	> 100	> 100 µM (inactive)	> 100 µM (inactive)	> 100 µM (inactive)	> 100 µM (inactive)	> 100 µM (inactive)	> 100 µM (inactive)	> 100 µM (inactive)		> 100 µM (inactive)	> 100 µM (inactive)	> 100 µM (inactive)	> 100 µM (inactive)	> 100 µM (inactive)	> 100 µM (inactive)	> 100 µM (inactive)	> 100 µM (inactive)
Cc1ccc(C(=O)Cc2nc3c([nH]c2=O)c(C)nn3-c2ccccc2)c(C)c1	> 10 µM (inactive)	> 10 µM (inactive)	4.69 µM (inactive)	> 10	9.04 µM (inactive)	> 10 µM (inactive)	> 10 µM (inactive)	> 10 µM (inactive)	> 10 µM (inactive)	> 10 µM (inactive)			> 10 µM (inactive)	> 10 µM (inactive)	> 10 µM (inactive)	1.01 µM (active)	5.45 µM (inactive)	> 10 µM (inactive)		> 10 µM (inactive)
CC(C)C(C=O)C(O)(C(F)(F)F)C(F)(F)F (stereo not given)	> 100 µM (inactive)	> 100 µM (inactive)	> 100 µM (inactive)	> 100	> 100 µM (inactive)	> 10 µM (inactive)	> 100 µM (inactive)	> 100 µM (inactive)	> 100 µM (inactive)	> 100 µM (inactive)	> 100 µM (inactive)	> 100 µM (inactive)	> 100 µM (inactive)	> 100 µM (inactive)	> 100 µM (inactive)	11.3 µM (inactive)	> 100 µM (inactive)	> 100 µM (inactive)	> 100 µM (inactive)	
Oc1nncc2[nH]c(-c3ccccc3)cc12	37.8 µM (inactive)	45.8 µM (inactive)	57.7 µM (inactive)	45.8	71.9 µM (inactive)	> 100 µM (inactive)	51.8 µM (inactive)	24.4 µM (inactive)	34 µM (inactive)	38.9 µM (inactive)	45.5 µM (inactive)	27 µM (inactive)		23.3 µM (inactive)	> 100 µM (inactive)	22.9 µM (inactive)	23.7 µM (inactive)	52 µM (inactive)	21.9 µM (inactive)	61.5 µM (inactive)
CC(C)(O)C1CC(=O)C(C)(C2C(O)CC3(C)C4CC=C5C(CCC(O)C5(C)C)C4(C)C(=O)CC23C)O1 (stereo not given)	> 100 µM (inactive)	> 100 µM (inactive)	> 100 µM (inactive)	> 100		> 100 µM (inactive)	> 100 µM (inactive)	> 100 µM (inactive)	> 100 µM (inactive)	> 100 µM (inactive)	> 100 µM (inactive)	> 100 µM (inactive)	> 100 µM (inactive)	> 100 µM (inactive)	> 100 µM (inactive)	42.2 µM (inactive)	> 100 µM (inactive)	> 100 µM (inactive)	> 100 µM (inactive)	> 100 µM (inactive)
